Measurements published in paper PMC5384962, “First-in-human studies of seletalisib, an orally bioavailable small-molecule PI3Kδ inhibitor for the treatment of immune and inflammatory diseases” (European Journal of Clinical Pharmacology, 2017).
Read-outs that look alike come from different tables or passages of the source.

Experiment: Study-1 Part-B multiple ascending dose pharmacokinetics (plasma and urine)
Format: in vivo, human
Conditions: for Fe(0–24) / CLss/F / Cmaxss / Ctrough / Vzss/F / AUC(0-t) / Tmax / Cmax / half-life / CL renal / Ae(0–24): Study-1 Part-B; for Fe(0–24) / CLss/F / Cmaxss / Ctrough / Vzss/F / AUC(0-t) / Cmax / half-life / CL renal / Ae(0–24): geo mean (GeoCV%); for AUC(0-t) / Tmax / Cmax / half-life / CL renal: human, oral; for AUC(0-t) / Tmax / Cmax / half-life: plasma; for AUC(0-t): read-out: AUC(0–24); for CL renal: urine and plasma; for Ae(0–24): urine
Source text: These were phase I, randomised, double-blind, placebo-controlled studies designed to evaluate the safety, tolerability, PK and PD profiles of seletalisib following oral administration of single ascending doses and multiple ascending doses. Study-1 was a first-in-human, double-blind (sponsor-, investigator- and subject-blind) study that had two parts: Part-A evaluated seletalisib (single ascending doses) in healthy adults (including evaluation of food effects; Table 1); Part-B evaluated seletalisib (multiple ascending doses) in healthy adults and subjects with mild-to-moderate psoriasis. Study-2 was also a double-blind study of seletalisib (single and multiple ascending doses) in healthy subjects, which investigated higher doses.
Plasma concentrations of seletalisib were measured by high-performance liquid chromatography with tandem mass spectrometry (see Online Resource S1 for further details). The following PK parameters were determined in each study: AUC for seletalisib, maximum observed plasma concentration of seletalisib after a single dose (Cmax) and at steady-state (Cmaxss), time of occurrence of Cmax (tmax, obtained directly from the observed plasma concentration-time curves), minimum observed plasma concentration of seletalisib at steady-state immediately before the next dose would be administered (Ctrough), apparent terminal half-life, apparent volume of distribution after single dosing (Vz/F) and at steady-state (Vzss/F) and apparent total body clearance after single dosing (CL/F) and at steady-state (CLss/F). Accumulation factor based on AUC(0–24) [R(AUC)] and accumulation factor based on Cmax [R(Cmax)] were determined on multiple dose day 14. The following study-specific PK parameters were also determined: Study-1, total amount of seletalisib excreted in urine (Ae), renal clearance (CLr) and fraction of drug excreted in urine; Study-2, AUC(0–10) in BID dose groups, terminal elimination rate constant in plasma (λz), mean residence time (MRT) and linearity factor (LF [AUC(0–24)ss/AUC]).
Methods for the calculation of seletalisib PK parameters are detailed in Online Resource S1.
Seletalisib PK parameters were calculated via non-compartmental analysis methods from the individual concentration-time data using Phoenix WinNonlin version 6.2 (Certara, Princeton, NJ, USA). Urine (Study-1 only) and plasma PK parameters of seletalisib were reported for each subject and summarised by study part and dose group. Geometric mean and percentage geometric coefficient of variation (GeoCV%) were reported for all parameters except for tmax, which was reported using median and range. Dose proportionality for AUC and Cmax at Day_1 (Study-1 [Part-A & Part-B]; Study-2, single ascending dose-Day_1) and at steady state at Day_14 (Study-1 [Part-B]; Study-2, multiple ascending dose-Day_14) was examined via the power model and reported graphically. In Study-1, an assessment of food effect (fed versus fasted) was made for Cmax and AUC from the data for subjects who received the same dose in fed and fasted states in Part-A.

[1] = power model, Study-1 Part B Day 14

SMILES: [O-][n+]1cccc(-c2nc3c(Cl)cccc3cc2[C@@H](Nc2ncnc3cccnc23)C(F)(F)F)c1 [Seletalisib, seletalisib]
- geometric mean fraction of drug excreted in urine (Study-1 Part-A and Part-B, parent drug, across dose groups): ≤ 12%
- Fe(0–24) (5 mg, Day 1): 4.02 (32.2) %
- CLss/F (5 mg, Day 14): 1.97 (36.2) L/h
- Cmaxss (5 mg, Day 14): 175 (29.1) ng/mL
- Ctrough (5 mg, Day 14): 66.5 (47.3) ng/mL
- Fe(0–24) (5 mg, Day 14): 6.80 (40.0) %
- Vzss/F (5 mg, Day 14): 62.5 (20.0) L
- Fe(0–24) (8 mg, Day 1): 4.24 (51.9) %
- CLss/F (8 mg, Day 14): 1.83 (50.2) L/h
- Cmaxss (8 mg, Day 14): 285 (41.7) ng/mL
- Ctrough (8 mg, Day 14): 113 (67.8) ng/mL
- Fe(0–24) (8 mg, Day 14): 7.60 (26.3) %
- Vzss/F (8 mg, Day 14): 60.3 (40.1) L
- Fe(0–24) (15 mg, Day 1): 5.42 (48.2) %
- CLss/F (15 mg, Day 14): 2.75 (29.9) L/h
- Cmaxss (15 mg, Day 14): 414 (23.0) ng/mL
- Ctrough (15 mg, Day 14): 140 (35.0) ng/mL
- Fe(0–24) (15 mg, Day 14): 12.0 (52.8) %
- Vzss/F (15 mg, Day 14): 89.0 (24.9) L
- AUC(0-t) (5 mg, 5 mg, Day 1): 1560 ng·h/mL
- Tmax (5 mg, 5 mg, Day 1, median (range), read-out: tmax): 4.01 h
- AUC(0-t) (5 mg, 5 mg, Day 14): 2540 ng·h/mL
- Tmax (5 mg, 5 mg, Day 14, median (range), read-out: tmax): 3 h
- AUC(0-t) (8 mg, 8 mg, Day 1): 2610 ng·h/mL
- Tmax (8 mg, 8 mg, Day 1, median (range), read-out: tmax): 4 h
- AUC(0-t) (8 mg, 8 mg, Day 14): 4370 ng·h/mL
- Tmax (8 mg, 8 mg, Day 14, median (range), read-out: tmax): 3.5 h
- AUC(0-t) (15 mg, 15 mg, Day 1): 3940 ng·h/mL
- Tmax (15 mg, 15 mg, Day 1, median (range), read-out: tmax): 3.01 h
- AUC(0-t) (15 mg, 15 mg, Day 14): 5460 ng·h/mL
- Tmax (15 mg, 15 mg, Day 14, median (range), read-out: tmax): 3 h
- Tmax (day 1, fed, range across groups, read-out: time to peak plasma concentration): 3.01 to 4.01 h
- Tmax (day 14, fed, range across groups, read-out: time to peak plasma concentration): 3 to 3.5 h
- Cmax (5 mg, Day 1): 122 ng/mL
- half-life (5 mg, Day 14): 22 h
- Cmax (8 mg, Day 1): 201 ng/mL
- half-life (8 mg, Day 14): 22.8 h
- Cmax (15 mg, Day 1): 322 ng/mL
- half-life (15 mg, Day 14): 22.5 h
- CL renal (5 mg, 5 mg, Day 1): 2.15 mL/min
- CL renal (5 mg, 5 mg, Day 14): 2.23 mL/min
- CL renal (8 mg, 8 mg, Day 1): 2.17 mL/min
- CL renal (8 mg, 8 mg, Day 14): 2.32 mL/min
- CL renal (15 mg, 15 mg, Day 1): 3.43 mL/min
- CL renal (15 mg, 15 mg, Day 14): 5.48 mL/min
- Dose proportionality of Cmaxss (ng/mL): Dose (beta), Estimate [1]: 0.78
- Dose proportionality of Cmaxss (ng/mL): Intercept, Estimate [1]: 3.95
- Ae(0–24) (5 mg, Day 1): 0.201 (32.2) mg
- Ae(0–24) (5 mg, Day 14): 0.340 (40.0) mg
- Ae(0–24) (8 mg, Day 1): 0.340 (51.9) mg
- Ae(0–24) (8 mg, Day 14): 0.608 (26.3) mg
- Ae(0–24) (15 mg, Day 1): 0.812 (48.2) mg
- Ae(0–24) (15 mg, Day 14): 1.80 (52.8) mg
